Experimental data taken from patent publication US20250333424A1, “ANTIVIRAL COMPOUNDS” (Gilead Sciences, Inc., priority 2024, published 2025).

Key:
[1] = tested on: monocytic THP1 cells infected with HIV VSV-G pseudotyped GFP-NEF reporter virus; experiment: cells; assay type: cell-based; conditions: Human immunodeficiency virus 1, THP-1, 24 h
[2] = tested on: CD4 cells, isolated from healthy donor PMBCs, infected with HIV VSV-G pseudotyped GFP-GAG reporter virus; experiment: tissue or blood; assay type: cell-based; conditions: Homo sapiens, 72 h

Row | Structure (SMILES) | EC50 [1] [nM] | EC50 [2] [nM]
1 | Cc1cc(/C=C/C#N)cc(C)c1Oc1nc(NC23CC(C#N)(C2)C3)nc2cnn(C)c12 [Compound 122] | 54 | 47.3
2 | Cc1nc2nc(NC34CC(C#N)(C3)C4)nc(Oc3c(C)cc(/C=C/C#N)cc3C)c2s1 [Compound 124, 3-[[7-[4-[(E)-2-cyanovinyl]-2,6-dimethyl-phenoxy]-2-methyl-thiazolo[4,5-d]pyrimidin-5-yl]amino]bicyclo[11.1.1]pentane-1-carbonitrile] | 61.7 | 27
3 | Cc1cc(/C=C/C#N)cc(C)c1Oc1nc(NC23CC(C#N)(C2)C3)nc2c1cnn2C [Compound 128, 3-[[4-[4-[(E)-2-cyanovinyl]-2,6-dimethyl-phenoxy]-1-methyl-pyrazolo[3,4-d]pyrimidin-6-yl]amino]bicyclo[11.1.1]pentane-1-carbonitrile] | 131 | 106
4 | Cc1cc(/C=C/C#N)cc(C)c1Oc1nc(NC23CC(C#N)(C2)C3)nc2c1nnn2C [Compound 129, 3-[[7-[4-[(E)-2-cyanovinyl]-2,6-dimethyl-phenoxy]-3-methyl-triazolo[4,5-d]pyrimidin-5-yl]amino]bicyclo[11.1.1]pentane-1-carbonitrile] | 168 | 131
5 | Cc1cc(/C=C/C#N)cc(C)c1Oc1nc(NC23CC(C#N)(C2)C3)nc2c1CCN2 [Compound 130, 3-[[4-[4-[(E)-2-cyanovinyl]-2,6-dimethyl-phenoxy]-6,7-dihydro-5H-pyrrolo[2,3-d]pyrimidin-2-yl]amino]bicyclo[11.1.1]pentane-1-carbonitrile] | 221 | 56
6 | Cc1cc(/C=C/C#N)cc(C)c1Oc1nc(NC23CC(C#N)(C2)C3)nc2onc(C)c12 [Compound 142, (E)-3-((4-(4-(2-cyanovinyl)-2,6-dimethylphenoxy)-3-methylisoxazolo[5,4-d]pyrimidin-6-yl)amino)bicyclo[1.1.1]pentane-1-carbonitrile] | 24 | 17.6
7 | Cc1cc(/C=C/C#N)cc(C)c1Oc1nc(NC23CC(C#N)(C2)C3)nc2c1c(C)nn2C [Compound 148, (E)-3-((4-(4-(2-cyanovinyl)-2,6-dimethylphenoxy)-1,3-dimethyl-1H-pyrazolo[3,4-d]pyrimidin-6-yl)amino)bicyclo[1.1.1]pentane-1-carbonitrile] | 48.1 | 41
8 | Cc1cc(/C=C/C#N)cc(C)c1Oc1nc(NC23CC(C#N)(C2)C3)nc2c1CN(C)C2 [Compound 150, (E)-3-((4-(4-(2-cyanovinyl)-2,6-dimethylphenoxy)-6-methyl-6,7-dihydro-5H-pyrrolo[3,4-d]pyrimidin-2-yl)amino)bicyclo[1.1.1]pentane-1-carbonitrile] | 99.2 | 110
9 | Cc1cc(/C=C/C#N)cc(C)c1Oc1nc(NC23CC(C4COC4)(C2)C3)nc2[nH]nc(C)c12 [Compound 154, (E)-3-(3,5-dimethyl-4-((3-methyl-6-((3-(oxetan-3-yl)bicyclo[1.1.1]pentan-1-yl)amino)-1H-pyrazolo[3,4-d]pyrimidin-4-yl)oxy)phenyl)acrylonitrile] | 235 | 324
